In the supplement of paper PMC10307832:

How the values were obtained:
Experiment in all cases: relative viability (nuclei count vs DMSO), 5 days (fraction); higher = more cells survive
Entinostat + Decitabine = compound: Nc1ccccc1NC(=O)c1ccc(CNC(=O)OCc2cccnc2)cc1 [Entinostat] + Nc1ncn([C@H]2C[C@H](O)[C@@H](CO)O2)c(=O)n1 [Decitabine] (partner 2 µM)
Method in brief: (§1)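 Dosing by pin tool came one day after lung cancer cell lines were seeded in 1536-well plates, using either one drug or a fixed anchor-drug dose plus five library-drug doses (not always all listed) in √10 steps. After 5 days, nuclei were counted on 4× images. Relative viability is treated-well nuclei count divided by vehicle-well nuclei count, and values are medians of duplicate plates.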

[1] = compound: C1COCCN1C2=NC(=NC3=C2OC4=C3C=CC=N4)C5=CC(=CC=C5)NC(=O)C6=CN=C(C=C6)N + Cc1cc(Nc2cc(N3CCN(C)CC3)nc(Sc3ccc(NC(=O)C4CC4)cc3)n2)n[nH]1 [Tozasertib] (partner 0.1 µM)
Method in brief: as §1

SGI-1776 + OSI-027 = compound: CN1CCC(CNc2ccc3ncc(-c4cccc(OC(F)(F)F)c4)n3n2)CC1 [SGI-1776] + COc1cccc2cc(-c3nc([C@H]4CC[C@H](C(=O)O)CC4)n4ncnc(N)c34)[nH]c12 [OSI-027] (partner 0.5 µM)
Method in brief: as §1

Entinostat + Linsitinib = compound: Nc1ccccc1NC(=O)c1ccc(CNC(=O)OCc2cccnc2)cc1 [Entinostat] + C[C@]1(O)C[C@@H](c2nc(-c3ccc4ccc(-c5ccccc5)nc4c3)c3c(N)nccn32)C1 [Linsitinib] (partner 1 µM)
Method in brief: as §1

Cell Line	relative viability (Entinostat + Decitabine; first compound 0.02 µM)	relative viability (Entinostat + Decitabine; first compound 0.06325 µM)	relative viability (Entinostat + Decitabine; first compound 0.2 µM)	relative viability (Entinostat + Decitabine; first compound 0.6325 µM)	relative viability (Entinostat + Decitabine; first compound 2 µM)	relative viability ([1]; first compound 0.02 µM)	relative viability ([1]; first compound 0.06325 µM)	relative viability ([1]; first compound 0.2 µM)	relative viability ([1]; first compound 0.6325 µM)	relative viability ([1]; first compound 2 µM)	relative viability (SGI-1776 + OSI-027; first compound 0.08 µM)	relative viability (SGI-1776 + OSI-027; first compound 0.8 µM)	relative viability (SGI-1776 + OSI-027; first compound 2.53 µM)	relative viability (SGI-1776 + OSI-027; first compound 8 µM)	relative viability (Entinostat + Linsitinib; first compound 0.02 µM)	relative viability (Entinostat + Linsitinib; first compound 0.06325 µM)	relative viability (Entinostat + Linsitinib; first compound 0.2 µM)	relative viability (Entinostat + Linsitinib; first compound 0.6325 µM)	relative viability (Entinostat + Linsitinib; first compound 2 µM)
SW 900	0.429	0.419	0.391	0.302	0.286	0.519	0.762	0.371	0.373	0.279	0.56	0.689	0.564	0.399					
NCI-H1944	0.391	0.372	0.258	0.25	0.245	0.259	0.263	0.228	0.209	0.173	0.436	0.428	0.344	0.342	1.12	1.19	1.23	0.554	0.357
NCI-H838	0.484	0.541	0.477	0.431	0.341	0.278	0.278	0.256	0.257	0.182	0.414	0.401	0.308	0.246	1.11	1.1	1.11	0.594	0.279
NCI-H1651	0.666	0.824	0.609	0.558	0.19	0.685	0.76	0.416	0.522	0.338	0.81	0.683	0.677	0.529	0.952	0.976	0.959	0.827	0.365
HCC-827	0.318	0.338	0.315	0.223	0.226	0.415	0.435	0.441	0.438	0.343	0.804	0.843	0.793	0.602	0.958	0.883	0.722	0.582	0.421
HCC-366	0.312	0.315	0.168	0.155	0.0591	0.0782	0.144	0.0599	0.0546	0.0428	0.837	0.866	1.02	0.667	0.859	0.758	0.461	0.175	0.0447
HARA	0.602	0.521	0.557	0.456	0.276	0.0879	0.0809	0.112	0.0875	0.125	0.681	0.638	0.64	0.412	0.917	0.938	0.938	0.793	0.577
NCI-H441	0.237	0.284	0.264	0.138	0.132	0.609	0.496	0.416	0.401	0.299	0.58	0.559	0.743	0.388	0.483	0.494	0.524	0.262	0.13
NCI-H1299															0.962	0.914	0.95	0.754	0.601
